What all share (assay type): in vivo
In one experiment the test system is Cotton plants. Kind of experiment: Cotton plants sprayed with ethephon at the cotyledon stage in greenhouse conditions. As for the experimental part:
(§1) Cotton plants were treated with ethephon in greenhouse conditions to evaluate the effects of ethephon application. All plants in the treatment groups received a single application by spraying of various concentrations of aqueous solutions of ethephon (0, 1.0, 3.8, 7.6, and 15.2 mM ethephon) to plants at the cotyledon stage. Lateral root production, leaf numbers and leaf size, and number of cotton squares were determined 7 to 80 days after spraying. To evaluate the effect on as a seed treatment, cotton seeds were soaked in aqueous ethephon solutions (10, 20, 30, and 50 mM) for 10 seconds prior to planting.

For a further experiment, the system named is cotton seeds. Kind of experiment: Cotton seeds soaked in aqueous ethephon solutions prior to planting. Particulars: seeds soaked 10 seconds; 10, 20, 30 and 50 mM tested. As for the experimental part: as §1
The test system of experiment [1] is dryland field grown cotton. Kind of experiment: Dryland field grown cotton sprayed with ethephon, seed cotton yield. Particulars: 3.8 mM single spray at cotyledon, two leaf or four leaf stage; vs non-treated controls; FIG. 1. As for the experimental part: The effects of ethephon treatment on dryland field grown cotton were measured. All plants in the treatment groups received a single application by spraying of 3.8 mM ethephon at either the cotyledon stage, two leaf stage, and four leaf stage. Cotton yields, measured as seed cotton weight, were measured at the end of the season following harvest.

Experiment [2] concerns Soybean seedlings (46G02 RR/STS, Kelly Green Seeds). Kind of experiment: Soybean seedlings sprayed with ethephon in greenhouse conditions. How it is done: Soybean seedlings (46G02 RR/STS, Kelly Green Seeds) at the cotyledon—second leaf stage were treated with ethephon in greenhouse conditions to evaluate the effects of ethephon application. All plants in the treatment groups received a single application by spraying of various concentrations of aqueous solutions of ethephon (0, 1.0, 3.8, 7.6, and 15.2 mM ethephon) to plants at the cotyledon stage. Root development, measured as tap root and lateral root lengths, and seedling growth were determined 7 days after spraying.

A further experiment has as its system wheat seedlings. The experiment is described as follows: Wheat seedlings sprayed with ethephon in greenhouse conditions. Particulars: between 1 mM and 7.6 mM ethephon, seven days after spraying, vs untreated controls. As for the experimental part: (§2) The effects of ethephon treatment on the root development of corn and wheat was evaluated. Corn and wheat seedlings at the two to three leaf stage were treated with ethephon in greenhouse conditions. All plants in the treatment groups received a single application by spraying of various concentrations of aqueous solutions of ethephon (0, 1.0, 3.8, 7.6, 11.4, 15.2 and 30.4 mM ethephon for wheat, and 0, 3.8, 5.7, 7.6, 11.4, 15.2, 30.4, 45.6, and […] ethephon for corn) to plants at the cotyledon stage. Root development, measured as tap root and lateral root lengths for corn and tap root length for wheat, and shoot length and root hair production were also determined for wheat, seven days after spraying. To evaluate the effect on as a seed treatment, wheat and corn seeds were soaked in aqueous ethephon solutions (90 mM) for 10 seconds prior to planting.

For a further experiment, the system named is Corn seedlings. The experiment is described as follows: Corn seedlings sprayed with ethephon in greenhouse conditions. How it is done: as §2
The mark [3] stands for this setting: spray, 0, 1.0, 3.8, 7.6 and 15.2 mM tested.
Setting [4] is: sprayed cotton, 7 to 80 days after spraying.
The mark [5] stands for this setting: 7 days after spraying, vs untreated controls.
Where [6] appears, read: between 3.8 and 11.4 mM ethephon, seven days after spraying, vs untreated controls.

Each structure is given as a SMILES string. “And” between values parts separate entries of the source, which are not always exact repeats. Equal values may be shown once.

For the molecule `O=P(O)(O)CCCl` [Ethephon, (2-chloroethyl)phosphonic acid], in the experiment on Cotton plants (3.8 mM ethephon vs control), the “increase in fruiting sites (cotton squares)” value is listed as 30%. The “Average # of squares” value in the experiment on Cotton plants (3.8 mM ethephon, single spray at cotyledon stage, greenhouse, average of 3 reps (control 42)) is 55. Further, the Number of squares with Cotton plants (3.8 mM ethephon, single spray at cotyledon stage, greenhouse, per rep) is 58 and 54 and 53. For the same molecule, the “ethephon concentration giving optimum results” value in the experiment on Cotton plants (setting [3]) is listed as 3.8 mM. Moreover, in the experiment on Cotton plants (setting [4]), the “fruiting (number of cotton squares)” value is recorded as “increased fruiting”, the lateral root development entry is listed as “statistically significant increases”, the leaf size entry was “without a decrease in leaf size” and the “rate of leaf production (measured as numbers of leaves)” value was “statistically significant increases”. In addition, in the experiment with cotton seeds, the “optimum seed soak concentration” value was found to be 30 mM. Also, the “cotton yields (seed cotton weight)” value in experiment [1] is reported as “significantly increased yields”. Moreover, in experiment [2] (setting [5]), the seedling growth entry was “statistically significant increases”; the “taproot and lateral root development” value is “statistically significant increases”. Besides, the “ethephon concentration giving optimum results” value in experiment [2] (setting [3]) came to 3.8 mM. Moreover, in the experiment with wheat seedlings, the shoot length entry is “statistically significant increases” and the taproot length result is “statistically significant increases”. In the experiment with Corn seedlings (setting [6]), the lateral root length result is given as “statistically significant increases” and the taproot length result is given as “statistically significant increases”. Also, in the experiment on Corn seedlings (spray, FIG. 4), the “ethephon concentration giving optimum results” value is 7.6 mM.
